Measurements as given in ChEMBL document CHEMBL6083204, “Synthesis of a celastrol derivative as a cancer stem cell inhibitor through regulation of the STAT3 pathway for treatment of ovarian cancer” (RSC Med Chem, 2024).
Active and inactive are the calls of the source. The calls are words filed in the database; no cut-off is given here.

Tests used:
A2780 [1] = test: Induction of cell cycle arrest in human A2780 cells assessed as accumulation of cells at S phase at 0.4 uM incubated for 24 hrs by BrdU staining based flow cytometry (reference value: 51.6 %); format: functional
SK-OV-3 [2] = test: Induction of cell cycle arrest in human SK-OV-3 cells assessed as accumulation of cells at G2/M phase at 0.2 uM incubated for 24 hrs by BrdU staining based flow cytometry (reference value: 6.3 %); format: functional
SK-OV-3 [3] = test: Antitumor activity against human SK-OV-3 cells xenografted in BALB/c mouse assessed as reduction in tumor weight at 5 mg/kg,ip administrated for 21 consecutive days; format: functional, organism-based
[4] = molecular target: Tyrosine-protein kinase JAK2 (Homo sapiens) (UniProt O60674); test: Inhibition of JAK2 in human SK-OV-3 cells assessed as downregulation of JAK2 expression at 0.1 to 0.4 uM incubated for 24 hrs by Western blotting analysis; format: cell-based; conditions: dose 0.1-0.4 µM
A2780 [5] = test: Induction of cell cycle arrest in human A2780 cells assessed as reduction of CDK4 expression at 0.2 uM incubated for 24 hrs by flow cytometry (reference value: 93.6 %); format: functional; set-up: scale not given: the % may be the effect or the level left
[6] = molecular target: Tyrosine-protein kinase JAK1 (Homo sapiens) (UniProt P23458); test: Inhibition of JAK1 in human SK-OV-3 cells assessed as downregulation of JAK1 expression at 0.1 to 0.4 uM incubated for 24 hrs by Western blotting analysis; format: cell-based; conditions: dose 0.1-0.4 µM
A2780 [7] = test: Inhibition of colony formation in human A2780 cells assessed as reduction in colony number incubated for 10 days by crystal violet staining based analysis; format: functional, cell-based; conditions: time 10.0 day
SK-OV-3 [8] = test: Induction of apoptosis in human SK-OV-3 cells assessed as late apoptotic cells at 0.2 uM incubated for 24 hrs by Annexin V-FITC/7-AAD staining based flow cytometry (reference value: 3.7 %); format: functional
SK-OV-3 [9] = test: Induction of cell cycle arrest in human SK-OV-3 cells assessed as reduction of CDK2 expression at 0.4 uM incubated for 24 hrs by flow cytometry (reference value: 94.4 %); format: functional; set-up: scale not given: the % may be the effect or the level left
A2780 [10] = test: Induction of cell cycle arrest in human A2780 cells assessed as accumulation of cells at G2/M phase at 0.2 uM incubated for 24 hrs by BrdU staining based flow cytometry (reference value: 6.2 %); format: functional
[11] = molecular target: Signal transducer and activator of transcription 3 (Homo sapiens) (UniProt P40763); test: Inhibition of STAT3 in human SK-OV-3 cells assessed as downregulation of cytoplasmic STAT3 phosphorylation at Tyr705 residue at 0.2 uM incubated for 24 hrs by Hoechst33342 staining based immunofluorescence assay; format: cell-based
A2780 [12] = test: Induction of cell cycle arrest in human A2780 cells assessed as reduction of CDK2 expression at 0.2 uM incubated for 24 hrs by flow cytometry (reference value: 92.5 %); format: functional; set-up: scale not given: the % may be the effect or the level left
[13] = molecular target: Signal transducer and activator of transcription 3 (Homo sapiens) (UniProt P40763); test: Inhibition of STAT3 in human A2780 cells assessed as downregulation of STAT3 phosphorylation at Tyr705 residue in nuclei at 0.2 uM incubated for 24 hrs by Hoechst33342 staining based immunofluorescence assay; format: cell-based
SK-OV-3 [14] = test: Induction of cell cycle arrest in human SK-OV-3 cells assessed as accumulation of cells at G0/G1 phase at 0.8 uM incubated for 24 hrs by BrdU staining based flow cytometry (reference value: 59.8 %); format: functional
A2780 [15] = test: Induction of cell cycle arrest in human A2780 cells assessed as reduction of CDK4 expression at 0.4 uM incubated for 24 hrs by flow cytometry (reference value: 93.6 %); format: functional; set-up: scale not given: the % may be the effect or the level left
A2780 [16] = test: Induction of cell cycle arrest in human A2780 cells assessed as accumulation of cells at S phase at 0.2 uM incubated for 24 hrs by BrdU staining based flow cytometry (reference value: 51.6 %); format: functional
SK-OV-3 [17] = test: Induction of apoptosis in human SK-OV-3 cells assessed as late apoptotic cells at 0.8 uM incubated for 24 hrs by Annexin V-FITC/7-AAD staining based flow cytometry (reference value: 3.7 %); format: functional
[18] = molecular target: Signal transducer and activator of transcription 3 (Homo sapiens) (UniProt P40763); test: Inhibition of STAT3 in human A2780 cells assessed as downregulation of cytoplasmic STAT3 phosphorylation at Ser727 residue at 0.2 uM incubated for 24 hrs by Hoechst33342 staining based immunofluorescence assay; format: cell-based
SK-OV-3 [19] = test: Induction of cell cycle arrest in human SK-OV-3 cells assessed as accumulation of cells at S phase at 0.8 uM incubated for 24 hrs by BrdU staining based flow cytometry (reference value: 33.6 %); format: functional
SK-OV-3 [20] = test: Antitumor activity against human SK-OV-3 cells xenografted in BALB/c mouse assessed as appearance of loosely arranged cells in tumor tissue at 2 to 5 mg/kg,ip administrated for 21 consecutive days by hematoxylin and eosin staining based assay; format: functional, organism-based; conditions: dose 2-5 mg/kg
A2780 [21] = test: Induction of cell cycle arrest in human A2780 cells assessed as reduction of Cyclin D1 expression at 0.8 uM incubated for 24 hrs by flow cytometry (reference value: 92.5 %); format: functional; set-up: scale not given: the % may be the effect or the level left
SK-OV-3 [22] = test: Antiproliferative activity against human SK-OV-3 cells assessed as decrease in CD44 positive CD24 negative cells expression at 0.4 uM incubated for 24 hrs by FITC staining based flow cytometry (reference value: 85.6 %); format: functional; set-up: scale not given: the % may be the effect or the level left
[23] = molecular target: Signal transducer and activator of transcription 3 (Homo sapiens) (UniProt P40763); test: Inhibition of STAT3 in human SK-OV-3 cells assessed as downregulation of survivin expression at 0.1 to 0.4 uM incubated for 24 hrs by Western blotting analysis; format: cell-based; conditions: dose 0.1-0.4 µM
SK-OV-3 [24] = test: Induction of apoptosis in human SK-OV-3 cells assessed as early apoptotic cells at 0.8 uM incubated for 24 hrs by Annexin V-FITC/7-AAD staining based flow cytometry (reference value: 1.6 %); format: functional
A2780 [25] = test: Antiproliferative activity against human A2780 cells assessed as inhibition of cell growth incubated for 72 hrs by MTT assay; format: functional, cell-based; conditions: A2780, 72 h
SK-OV-3 [26] = test: Induction of ROS production in human SK-OV-3 cells assessed as increase in fluorescence intensity incubated for 24 hrs by DCFH-DA staining based flow cytometry; format: functional, cell-based
SK-OV-3 [27] = test: Induction of cell cycle arrest in human SK-OV-3 cells assessed as reduction of CDK4 expression at 0.8 uM incubated for 24 hrs by flow cytometry (reference value: 66.8 %); format: functional; set-up: scale not given: the % may be the effect or the level left
[28] = molecular target: Tyrosine-protein kinase JAK1 (Homo sapiens) (UniProt P23458); test: Inhibition of JAK1 in human SK-OV-3 cells assessed as downregulation of JAK1 phosphorylation at 0.1 to 0.4 uM incubated for 24 hrs by Western blotting analysis; format: cell-based; conditions: dose 0.1-0.4 µM
[29] = Toxicity in BALB/c mouse xenografted with human SK-OV-3 cells assessed as change in body weight at 2 to 5 mg/kg,ip administrated for 21 consecutive days; format: organism-based; conditions: in vivo, dose 2-5 mg/kg
SK-OV-3 [30] = test: Induction of apoptosis in human SK-OV-3 cells assessed as necrotic cells at 0.2 uM incubated for 24 hrs by Annexin V-FITC/7-AAD staining based flow cytometry (reference value: 0.6 %); format: functional
[31] = Toxicity in BALB/c mouse xenografted with human SK-OV-3 cells assessed as pathological change in kidney at 2 to 5 mg/kg,ip administrated for 21 consecutive days by hematoxylin and eosin staining based assay; format: organism-based; conditions: in vivo, dose 2-5 mg/kg

Signal transducer and activator of transcription 3 (Homo sapiens), sequence (P40763 whole entry): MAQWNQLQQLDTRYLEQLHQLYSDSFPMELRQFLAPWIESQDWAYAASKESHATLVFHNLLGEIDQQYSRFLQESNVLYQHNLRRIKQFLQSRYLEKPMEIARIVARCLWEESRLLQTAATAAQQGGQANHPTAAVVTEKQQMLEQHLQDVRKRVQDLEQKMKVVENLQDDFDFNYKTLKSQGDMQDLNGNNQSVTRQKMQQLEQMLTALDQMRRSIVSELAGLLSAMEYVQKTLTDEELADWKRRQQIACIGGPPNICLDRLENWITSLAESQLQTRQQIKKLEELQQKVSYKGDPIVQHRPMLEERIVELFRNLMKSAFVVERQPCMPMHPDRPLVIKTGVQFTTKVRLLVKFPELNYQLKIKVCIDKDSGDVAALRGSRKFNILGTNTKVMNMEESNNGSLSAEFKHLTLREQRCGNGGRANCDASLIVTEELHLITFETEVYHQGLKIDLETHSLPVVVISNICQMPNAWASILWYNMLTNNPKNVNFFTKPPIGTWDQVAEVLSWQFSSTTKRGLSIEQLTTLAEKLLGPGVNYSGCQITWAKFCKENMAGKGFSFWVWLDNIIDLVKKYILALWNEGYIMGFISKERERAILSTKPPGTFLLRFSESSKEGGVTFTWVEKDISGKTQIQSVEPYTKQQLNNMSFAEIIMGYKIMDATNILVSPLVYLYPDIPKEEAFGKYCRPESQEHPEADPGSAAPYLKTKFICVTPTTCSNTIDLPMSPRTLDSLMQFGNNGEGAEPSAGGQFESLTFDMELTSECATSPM
Tyrosine-protein kinase JAK1 (Homo sapiens), sequence (P23458 whole entry): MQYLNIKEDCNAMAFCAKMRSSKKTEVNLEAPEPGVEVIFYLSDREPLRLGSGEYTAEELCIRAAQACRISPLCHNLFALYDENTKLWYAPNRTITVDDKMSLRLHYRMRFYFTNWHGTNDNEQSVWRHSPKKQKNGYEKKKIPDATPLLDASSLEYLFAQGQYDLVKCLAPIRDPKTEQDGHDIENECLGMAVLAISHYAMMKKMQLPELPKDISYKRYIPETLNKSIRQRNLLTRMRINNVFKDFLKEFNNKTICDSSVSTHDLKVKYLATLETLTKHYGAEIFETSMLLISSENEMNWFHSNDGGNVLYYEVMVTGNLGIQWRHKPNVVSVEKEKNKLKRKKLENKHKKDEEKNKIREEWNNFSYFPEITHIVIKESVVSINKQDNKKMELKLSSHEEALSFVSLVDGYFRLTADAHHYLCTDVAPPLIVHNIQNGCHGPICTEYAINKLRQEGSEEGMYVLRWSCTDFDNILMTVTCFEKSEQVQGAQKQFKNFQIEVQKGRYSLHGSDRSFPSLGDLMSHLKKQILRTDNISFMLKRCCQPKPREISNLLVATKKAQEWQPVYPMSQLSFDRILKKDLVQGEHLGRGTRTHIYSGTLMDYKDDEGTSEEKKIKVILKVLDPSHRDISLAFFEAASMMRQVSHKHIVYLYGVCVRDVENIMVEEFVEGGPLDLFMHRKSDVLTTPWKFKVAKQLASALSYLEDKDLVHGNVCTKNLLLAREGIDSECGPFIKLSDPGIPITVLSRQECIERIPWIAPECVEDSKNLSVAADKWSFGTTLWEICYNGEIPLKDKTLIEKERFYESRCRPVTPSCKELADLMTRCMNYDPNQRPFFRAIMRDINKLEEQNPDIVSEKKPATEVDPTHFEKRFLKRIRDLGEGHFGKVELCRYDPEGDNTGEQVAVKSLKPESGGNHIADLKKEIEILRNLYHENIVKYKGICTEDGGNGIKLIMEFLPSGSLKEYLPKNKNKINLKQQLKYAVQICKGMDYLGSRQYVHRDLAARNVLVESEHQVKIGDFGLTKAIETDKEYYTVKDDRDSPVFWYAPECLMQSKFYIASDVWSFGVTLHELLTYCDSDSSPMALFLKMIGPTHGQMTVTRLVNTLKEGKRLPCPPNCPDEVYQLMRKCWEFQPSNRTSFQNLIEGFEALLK
Tyrosine-protein kinase JAK2 (Homo sapiens), sequence (O60674 whole entry): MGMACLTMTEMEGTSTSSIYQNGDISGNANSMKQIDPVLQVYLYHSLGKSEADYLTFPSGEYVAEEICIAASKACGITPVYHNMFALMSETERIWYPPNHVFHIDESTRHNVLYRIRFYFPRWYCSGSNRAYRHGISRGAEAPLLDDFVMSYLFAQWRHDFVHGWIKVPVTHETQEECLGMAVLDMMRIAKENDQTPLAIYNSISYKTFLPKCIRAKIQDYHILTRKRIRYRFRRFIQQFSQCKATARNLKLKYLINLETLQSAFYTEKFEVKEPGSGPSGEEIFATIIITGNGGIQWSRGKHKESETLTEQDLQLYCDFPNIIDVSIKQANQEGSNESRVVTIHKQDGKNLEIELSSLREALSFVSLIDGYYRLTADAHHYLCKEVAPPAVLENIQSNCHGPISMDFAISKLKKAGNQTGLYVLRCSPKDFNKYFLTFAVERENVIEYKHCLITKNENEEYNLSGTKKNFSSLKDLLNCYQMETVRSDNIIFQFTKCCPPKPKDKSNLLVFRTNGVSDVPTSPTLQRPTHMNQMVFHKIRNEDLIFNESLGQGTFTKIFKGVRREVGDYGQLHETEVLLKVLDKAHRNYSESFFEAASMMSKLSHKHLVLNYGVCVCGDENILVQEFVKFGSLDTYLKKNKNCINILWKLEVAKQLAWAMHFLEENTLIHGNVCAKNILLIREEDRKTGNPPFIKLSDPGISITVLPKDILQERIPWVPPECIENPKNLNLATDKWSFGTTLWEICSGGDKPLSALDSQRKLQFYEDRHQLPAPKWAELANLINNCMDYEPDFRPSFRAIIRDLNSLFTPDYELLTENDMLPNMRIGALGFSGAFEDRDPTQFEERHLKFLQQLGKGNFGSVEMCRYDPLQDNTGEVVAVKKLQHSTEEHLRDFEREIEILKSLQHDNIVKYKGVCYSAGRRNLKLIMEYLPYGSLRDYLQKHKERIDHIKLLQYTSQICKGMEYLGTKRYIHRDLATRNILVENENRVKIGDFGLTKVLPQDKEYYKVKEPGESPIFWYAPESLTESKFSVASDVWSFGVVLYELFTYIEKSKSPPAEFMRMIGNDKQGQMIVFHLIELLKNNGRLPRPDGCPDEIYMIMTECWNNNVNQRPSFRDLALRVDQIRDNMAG

## CC1=C(O)C(=O)C=C2C1=CC=C1[C@@]2(C)CC[C@@]2(C)[C@@H]3C[C@](C)(C(=O)N4CCNCC4)CC[C@]3(C)CC[C@]12C
A2780 [1]
  Activity: 25.2%
SK-OV-3 [2]
  Activity: 6.7%
SK-OV-3 [3]
  Activity: Active; Showed Moderate Reduction Activity
[4]
  inhibition: Active
A2780 [5]
  Activity: 74.6%
[6]
  inhibition: Active
A2780 [7]
  inhibition: Dose-dependent-effect
SK-OV-3 [8]
  Activity: 7.8%
SK-OV-3 [9]
  Activity: 80.7%
A2780 [10]
  Activity: 4.8%
[11]
  inhibition: Active; Showed Mild Inhibition Activity
A2780 [12]
  Activity: 89.6%
[13]
  inhibition: Active
SK-OV-3 [14]
  Activity: 47.7%
A2780 [15]
  Activity: 17.2%
A2780 [16]
  Activity: 41.7%
SK-OV-3 [17]
  Activity: 17.4%
[18]
  inhibition: Active; Showed Mild Inhibition Activity
SK-OV-3 [19]
  Activity: 37.2%
SK-OV-3 [20]
  Activity: Active
A2780 [21]
  Activity: 15%
SK-OV-3 [22]
  Activity: 51.67%
[23]
  inhibition: Active
SK-OV-3 [24]
  Activity: 33.2%
A2780 [25]
  IC50: 140 nM
SK-OV-3 [26]
  Activity: Dose-dependent-effect
SK-OV-3 [27]
  Activity: 29.8%
[28]
  inhibition: Active
[29]
  Activity: Non-toxic
SK-OV-3 [30]
  Activity: 0.7%
[31]
  Activity: Non-toxic
